The source made the active and inactive calls. The calls are words filed in the database; no cut-off is given here.

The results in this text go back to ChEMBL document CHEMBL5331113 (J Med Chem, 2023).

The test system of assay [1] is HEK293T. Nature of the assay: Antagonist activity at mouse succinate receptor 1 N181.31E/K2697.32N mutant expressed in HEK293T cells co-transfected with Galphai-Rluc8/Ggamma8-GFP2/Gbeta3 assessed as inhibition of succinate induced G protein activation incubated for 5 mins by luminescence based BRET assay. The format is cell-based.
Assay [2] has as its system HEK293T. Description: Antagonist activity at mouse succinate receptor 1 N181.31E/K2697.32N/G84EL1W mutant expressed in HEK293T cells co-transfected with Galphai-Rluc8/Ggamma8-GFP2/Gbeta3 assessed as inhibition of succinate induced G protein activation incubated for 5 mins by luminescence based BRET assay. Format: cell-based. To be noted: filed as antagonist.
Assay [3] can be described thus: Competitive binding affinity to humanized mouse succinate receptor 1 N181.31E/K2697.32N/G84EL1W mutant assessed as inhibition constant incubated for 5 mins in the presence of TUG-2384 by BRET assay.
In another assay the target is T1, Succinate receptor 1 (Homo sapiens, UniProt Q9BXA5).
T1 sequence (Q9BXA5 whole entry): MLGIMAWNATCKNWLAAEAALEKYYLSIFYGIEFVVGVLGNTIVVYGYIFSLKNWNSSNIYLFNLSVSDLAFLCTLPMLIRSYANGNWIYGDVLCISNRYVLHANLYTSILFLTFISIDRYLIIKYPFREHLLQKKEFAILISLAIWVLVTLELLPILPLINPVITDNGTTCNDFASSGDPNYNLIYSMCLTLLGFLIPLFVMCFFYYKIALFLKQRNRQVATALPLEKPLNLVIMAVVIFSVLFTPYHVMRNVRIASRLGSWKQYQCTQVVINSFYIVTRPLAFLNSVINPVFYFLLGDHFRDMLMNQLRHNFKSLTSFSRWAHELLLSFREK
Description: Competitive binding affinity to N-terminal Nluc-tagged human succinate receptor 1 expressed in Flp-In-T-REx-293 cells assessed as inhibition constant incubated for 5 mins in the presence of TUG-2465 by BRET assay. Format: cell-based.

Assay [4] has as its target T2, Succinate receptor 1 (Homo sapiens) (UniProt Q9BXA5).
T2 sequence (whole entry): T1 sequence (Q9BXA5 whole entry)
The note with it: Flp-In-T-REx-293, filed as agonist, time 30.0 min.

The nature of the next assay: cells. The note with it: Mus musculus, HEK-293T, 5 min, read-out: pEC50 (converted).

Regarding `CN1CCN(Cc2ccc(-c3cccc(C(=O)Nc4ccccc4CC(=O)O)c3)cc2)CC1`, in the assay with HEK293T [1], the result was inactive. Moreover, in the assay with HEK293T [2], the result was Active. Consider `O=C(O)CCc1cccc(Oc2ccc(Oc3cccc4cnccc34)cc2C(F)(F)F)c1`, for which the pKi in assay [3] is on record as less than 4.5. Also, the inhibitory constant (Ki) at Succinate receptor 1 was 7.94 µM.

In the case of `CC(C)(C)OC(=O)NCCCCCCOc1ccc(-c2cccc(C(=O)Nc3ccccc3CC(=O)O)c2)cc1`, the pEC50 result in assay [4] is “Active”. Take `O=C(O)CCC(=O)O` [SUCCINIC ACID]: the EC50 in the assay “cells” is 52.5 µM.
